According to ChEMBL document CHEMBL2046363, “Discovery and structure-activity relationship of 2,6-disubstituted pyrazines, potent and selective inhibitors of protein kinase CK2” (Bioorg Med Chem Lett, 2012):
Active and inactive are the calls of the source. The rule behind the calls is not given here.

Assays:
[1] = Inhibition of CK2 expressed in HEK293 cells by SRE-luciferase reporter gene assay; format: cell-based
[2] = Inhibition of CK2
[3] = Selectivity ratio of IC50 for S6 kinase to CK2
[4] = Selectivity ratio of IC50 for PKA to CK2
[5] = Selectivity ratio of IC50 for ERK to CK2
[6] = Selectivity ratio of IC50 for p38beta2 to CK2
[7] = Selectivity ratio of IC50 for CAMK2 to CK2
Rattus norvegicus = assay: Antinephritic activity in anti-GBM glomerulonephritis Wistar-Kyoto rat model assessed as improved proteinuria at 15 mg/kg, ip qd measured at day 7 by pyrogallol Red method; format: functional, organism-based; set-up: dose 15 mg/kg
[8] = Selectivity ratio of IC50 for PKC to CK2

Compound | IC50 [1] | IC50 [2] | further results
O=C(O)Cc1ccn(-c2cncc(-n3nc(Cl)c4ccccc43)n2)c1 | 30 µM | 12 nM | 
O=C(O)Cc1cn(-c2cncc(-n3cc(CC(=O)O)c4ccccc43)n2)c2ccccc12 |  | 300 nM | 
O=C(O)Cc1ccn(-c2cncc(-n3ncc4ccc(NC5CCCC5)cc43)n2)c1 | 0.9 µM | 9.3 nM | Ratio IC50 [3]: 626; Ratio IC50 [4]: > 740; Ratio IC50 [5]: > 740; Ratio IC50 [6]: > 740; Ratio IC50 [7]: 162; Activity (Rattus norvegicus): Active; Ratio IC50 [8]: > 740
O=C(O)Cc1ccn(-c2cncc(-n3cnc4ccccc43)n2)c1 |  | 100 nM | 
CC(C)Nc1ccc2cnn(-c3cncc(-n4ccc(CC(=O)O)c4)n3)c2c1 | 1 µM | 8 nM | 
Cc1cc(O)c2c(c1)C(=O)c1cc(O)cc(O)c1C2=O [EMODIN] |  | 2000 nM | 
O=C(O)Cc1cn(-c2cncc(-n3ccc4ccccc43)n2)c2ccccc12 |  | 500 nM | 
O=C(O)Cc1cn(-c2cncc(-n3cccc3)n2)c2ccccc12 |  | 3000 nM | 
N#Cc1ccc2cnn(-c3cncc(-n4ccc(CC(=O)O)c4)n3)c2c1 | 11 µM | 22 nM | 
O=C(O)Cc1c2ccccc2n2c1[nH]c(=O)c1ccccc12 |  | 80 nM | 
O=C(O)Cc1ccn(-c2cncc(-n3ccc4ccccc43)n2)c1 |  | 100 nM | 
O=C(O)Cc1ccn(-c2cncc(-n3ncc4ccc(Cl)cc43)n2)c1 | 4 µM | 16 nM | 
Nc1ccc2cnn(-c3cncc(-n4ccc(CC(=O)O)c4)n3)c2c1 |  | 25 nM | 
O=C(O)Cc1ccn(-c2cncc(-n3ncc4ccccc43)n2)c1 |  | 30 nM | 
Nc1nn(-c2cncc(-n3ccc(CC(=O)O)c3)n2)c2ccccc12 | 15 µM | 8 nM | 
O=C(O)Cc1ccn(-c2cncc(N3CCc4ccccc43)n2)c1 |  | 50 nM | 
